In ChEMBL document CHEMBL1201862, “PubChem BioAssay data set” (2004):
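Five concentrations, 48 hours, 96-well plates. GI50 marks 50% less growth.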 The source made the active and inactive calls. Cut-off read from the data, not from the text of the source: active = GI50 up to about 1.1 µM and inactive = higher.

How the values were obtained:
Test in all cases: NCI tumour cell line growth inhibition, 48 h
SF-268 = tested on: SF-268
786-0 = tested on: 786-0
HT-29 = tested on: HT-29
CCRF-CEM = tested on: CCRF-CEM
SW-620 = tested on: SW-620
SN12C = tested on: SN12C
OVCAR-5 = tested on: OVCAR-5
BT-549 = tested on: BT-549
EKVX = tested on: EKVX
K562 = tested on: K562
MCF7 = tested on: MCF7
HCC 2998 = tested on: HCC 2998
HOP-92 = tested on: HOP-92
Malme-3M = tested on: Malme-3M
UACC-62 = tested on: UACC-62
RXF 393 = tested on: RXF 393
SNB-75 = tested on: SNB-75
Hs-578T = tested on: Hs-578T
NCI/ADR-RES = tested on: NCI/ADR-RES
PC-3 = tested on: PC-3

| SMILES | GI50 (SF-268) | GI50 (786-0) | GI50 (HT-29) | GI50 (CCRF-CEM) | GI50 (SW-620) | GI50 (SN12C) | GI50 (OVCAR-5) | GI50 (BT-549) | GI50 (EKVX) | GI50 (K562) | GI50 (MCF7) | GI50 (HCC 2998) | GI50 (HOP-92) | GI50 (Malme-3M) | GI50 (UACC-62) | GI50 (RXF 393) | GI50 (SNB-75) | GI50 (Hs-578T) | GI50 (NCI/ADR-RES) | GI50 (PC-3) |
| --- | --- | --- | --- | --- | --- | --- | --- | --- | --- | --- | --- | --- | --- | --- | --- | --- | --- | --- | --- | --- |
| N#[N+]c1cc2c(cc1Br)-c1ccccc1C2 | > 100 µM (inactive) | > 100 µM (inactive) | > 100 µM (inactive) | 0.586 µM (active) | > 100 µM (inactive) | > 100 µM (inactive) | > 100 µM (inactive) | 70 µM (inactive) | 24.5 µM (inactive) | 8.39 µM (inactive) | 45.5 µM (inactive) | 85.5 µM (inactive) | 11.9 µM (inactive) | 40 µM (inactive) | 44.9 µM (inactive) | 78.3 µM (inactive) | > 100 µM (inactive) | > 100 µM (inactive) | > 100 µM (inactive) | – |
| CCOC(=O)c1sc2nc(SC)nc3c2c1NCN3C1CC1 | > 100 µM (inactive) | 48.2 µM (inactive) | > 100 µM (inactive) | > 100 µM (inactive) | – | > 100 µM (inactive) | > 100 µM (inactive) | > 100 µM (inactive) | – | – | – | > 100 µM (inactive) | > 100 µM (inactive) | > 100 µM (inactive) | > 100 µM (inactive) | > 100 µM (inactive) | 38.8 µM (inactive) | 74.5 µM (inactive) | > 100 µM (inactive) | > 100 µM (inactive) |
| N=c1oc2ccc(Cl)cc2cc1C(N)=O | 26.3 µM (inactive) | 24.8 µM (inactive) | 38.5 µM (inactive) | 40.6 µM (inactive) | 45.9 µM (inactive) | 18.8 µM (inactive) | 27 µM (inactive) | 35.2 µM (inactive) | – | > 100 µM (inactive) | – | 25.7 µM (inactive) | 36 µM (inactive) | 17.6 µM (inactive) | 16.8 µM (inactive) | 29.6 µM (inactive) | 26.1 µM (inactive) | 18.5 µM (inactive) | 34.4 µM (inactive) | 17.2 µM (inactive) |
| Cc1ccc2c(=O)c(-c3nnc(N)s3)c[nH]c2n1 | 36.3 µM (inactive) | 55.2 µM (inactive) | > 100 µM (inactive) | > 100 µM (inactive) | > 100 µM (inactive) | > 100 µM (inactive) | > 100 µM (inactive) | > 100 µM (inactive) | > 100 µM (inactive) | > 100 µM (inactive) | > 100 µM (inactive) | – | – | > 100 µM (inactive) | > 100 µM (inactive) | 83.4 µM (inactive) | – | > 100 µM (inactive) | > 100 µM (inactive) | > 100 µM (inactive) |
| N#C/C(=C\c1cc(Br)c(O)c(Br)c1)c1cccnc1 | 33.4 µM (inactive) | 10.1 µM (inactive) | 34.9 µM (inactive) | 18.2 µM (inactive) | 28.8 µM (inactive) | 34.7 µM (inactive) | 41.6 µM (inactive) | 22.5 µM (inactive) | 19.1 µM (inactive) | 23.6 µM (inactive) | 33 µM (inactive) | 36.1 µM (inactive) | – | 17.2 µM (inactive) | 43.8 µM (inactive) | 41.3 µM (inactive) | 75 µM (inactive) | – | 24 µM (inactive) | 22 µM (inactive) |
| Cn1ccc(C(=O)N2CCSC2=S)c(OCc2ccccc2)c1=O | > 100 µM (inactive) | > 100 µM (inactive) | > 100 µM (inactive) | 48.8 µM (inactive) | > 100 µM (inactive) | > 100 µM (inactive) | – | > 100 µM (inactive) | – | > 100 µM (inactive) | – | > 100 µM (inactive) | 79.1 µM (inactive) | 87.7 µM (inactive) | > 100 µM (inactive) | – | 70.1 µM (inactive) | > 100 µM (inactive) | > 100 µM (inactive) | > 100 µM (inactive) |
| O=C(O)C1CCCCC1C(=O)Nn1cnnc1 (stereo not given) | > 100 µM (inactive) | > 100 µM (inactive) | > 100 µM (inactive) | > 100 µM (inactive) | > 100 µM (inactive) | > 100 µM (inactive) | > 100 µM (inactive) | > 100 µM (inactive) | > 100 µM (inactive) | > 100 µM (inactive) | > 100 µM (inactive) | > 100 µM (inactive) | > 100 µM (inactive) | – | > 100 µM (inactive) | > 100 µM (inactive) | > 100 µM (inactive) | – | > 100 µM (inactive) | > 100 µM (inactive) |
| Cc1ccc2nc(-c3ccc(N)c(Br)c3)sc2c1 | 10.6 µM (inactive) | 29.1 µM (inactive) | 40.7 µM (inactive) | 3.37 µM (inactive) | – | > 100 µM (inactive) | 47.3 µM (inactive) | 14.9 µM (inactive) | 15.2 µM (inactive) | 17.4 µM (inactive) | – | 2.64 µM (inactive) | 19.7 µM (inactive) | > 100 µM (inactive) | 23.8 µM (inactive) | 18.2 µM (inactive) | – | 14.2 µM (inactive) | 52.1 µM (inactive) | 22.2 µM (inactive) |
| N#CCN(Cc1ccccc1)[C@@H]1CCC[C@]1(O)C#Cc1ccc2c(c1)OCO2 | 19.1 µM (inactive) | 15.8 µM (inactive) | 18.2 µM (inactive) | 17.6 µM (inactive) | 22.5 µM (inactive) | – | 16.1 µM (inactive) | – | 27 µM (inactive) | 20.3 µM (inactive) | 16.9 µM (inactive) | 16.3 µM (inactive) | 12.9 µM (inactive) | 18.2 µM (inactive) | 16.1 µM (inactive) | 15.2 µM (inactive) | 31 µM (inactive) | 14.1 µM (inactive) | 19.5 µM (inactive) | 19.7 µM (inactive) |
| O=C(Cn1c(C(=O)/C=C/c2cccs2)nc2ccccc21)c1ccc(Cl)cc1 | 12.6 µM (inactive) | 16.3 µM (inactive) | 19.7 µM (inactive) | – | 25.6 µM (inactive) | 16.7 µM (inactive) | > 100 µM (inactive) | 21 µM (inactive) | – | 7.8 µM (inactive) | 16.3 µM (inactive) | 14.8 µM (inactive) | 23.3 µM (inactive) | 13.6 µM (inactive) | 25.2 µM (inactive) | 29.2 µM (inactive) | 24.2 µM (inactive) | 12.8 µM (inactive) | 14 µM (inactive) | – |
| CCOC(=O)c1sc2nc(SC)nc(Nc3ccc4c(c3)OCCCO4)c2c1N | 20.8 µM (inactive) | 19.3 µM (inactive) | 32.8 µM (inactive) | 4.66 µM (inactive) | 17.5 µM (inactive) | > 100 µM (inactive) | > 100 µM (inactive) | 17.5 µM (inactive) | 10.6 µM (inactive) | 9.04 µM (inactive) | 7.71 µM (inactive) | 25.2 µM (inactive) | 61.1 µM (inactive) | 16.7 µM (inactive) | 9.84 µM (inactive) | 11.8 µM (inactive) | – | – | 8.93 µM (inactive) | 20 µM (inactive) |
| CC1=Nc2sc3c(c2C2=NCCN12)CCCC3 | 52.2 µM (inactive) | 21.8 µM (inactive) | 18.6 µM (inactive) | – | 25.4 µM (inactive) | 29.9 µM (inactive) | 30.7 µM (inactive) | 19.1 µM (inactive) | 23.4 µM (inactive) | 23.6 µM (inactive) | 23.7 µM (inactive) | 29.9 µM (inactive) | – | 25.7 µM (inactive) | 15.3 µM (inactive) | 31.3 µM (inactive) | 37.2 µM (inactive) | 27.5 µM (inactive) | 14.8 µM (inactive) | 20 µM (inactive) |
| O=C(C=P(c1ccccc1)(c1ccccc1)c1ccccc1)c1ccc(-c2cccc([N+](=O)[O-])c2)cc1 | 4.65 µM (inactive) | 4.51 µM (inactive) | 1.75 µM (inactive) | 2.79 µM (inactive) | 3.91 µM (inactive) | 3.13 µM (inactive) | 3.61 µM (inactive) | – | 2.69 µM (inactive) | 3.35 µM (inactive) | 3.13 µM (inactive) | 1.66 µM (inactive) | 2.16 µM (inactive) | 3.48 µM (inactive) | 4.2 µM (inactive) | 3.06 µM (inactive) | 2.29 µM (inactive) | 4.9 µM (inactive) | 3.6 µM (inactive) | 3.57 µM (inactive) |
| COC(=O)c1cc(/C=C2\Cc3cc4c(cc3C2=O)CCC4)cc2c1CCC2 | > 100 µM (inactive) | > 100 µM (inactive) | > 100 µM (inactive) | > 100 µM (inactive) | > 100 µM (inactive) | > 100 µM (inactive) | > 100 µM (inactive) | > 100 µM (inactive) | > 100 µM (inactive) | > 100 µM (inactive) | > 100 µM (inactive) | > 100 µM (inactive) | – | > 100 µM (inactive) | > 100 µM (inactive) | – | > 100 µM (inactive) | > 100 µM (inactive) | > 100 µM (inactive) | > 100 µM (inactive) |
| CN(C(=O)c1cc2c(s1)sc1c(=O)n(C)c3ccccc3c12)c1ccccc1 | – | 5.27 µM (inactive) | 2.77 µM (inactive) | 2.74 µM (inactive) | – | 34.8 µM (inactive) | 63.7 µM (inactive) | > 100 µM (inactive) | 16.7 µM (inactive) | 2.51 µM (inactive) | 0.501 µM (active) | 4.66 µM (inactive) | 42.4 µM (inactive) | 6.56 µM (inactive) | 6.03 µM (inactive) | 21.8 µM (inactive) | 4.33 µM (inactive) | – | 4.54 µM (inactive) | 4.68 µM (inactive) |
| CCOC(=O)c1cc(=O)c2ccnc3c2n1CCS3 | > 100 µM (inactive) | > 100 µM (inactive) | > 100 µM (inactive) | 48.5 µM (inactive) | > 100 µM (inactive) | > 100 µM (inactive) | > 100 µM (inactive) | 62.2 µM (inactive) | > 100 µM (inactive) | – | > 100 µM (inactive) | – | 66.4 µM (inactive) | – | > 100 µM (inactive) | – | 8.3 µM (inactive) | > 100 µM (inactive) | > 100 µM (inactive) | > 100 µM (inactive) |
